From patent US11286243B2 (GLOBAL BLOOD THERAPEUTICS, INC., priority 2018, dated 2022)

Biological target: T1, human ferroportin (Homo sapiens, UniProt Q9NP59)
T1 construct: luciferase reporter (probably NanoLuc: read with the Nano-Glo Luciferase Assay System); expressed in transfected cells; host or cells: CHO cells, stably transfected, doxycycline-inducible expression
T1 sequence (Q9NP59 1-571): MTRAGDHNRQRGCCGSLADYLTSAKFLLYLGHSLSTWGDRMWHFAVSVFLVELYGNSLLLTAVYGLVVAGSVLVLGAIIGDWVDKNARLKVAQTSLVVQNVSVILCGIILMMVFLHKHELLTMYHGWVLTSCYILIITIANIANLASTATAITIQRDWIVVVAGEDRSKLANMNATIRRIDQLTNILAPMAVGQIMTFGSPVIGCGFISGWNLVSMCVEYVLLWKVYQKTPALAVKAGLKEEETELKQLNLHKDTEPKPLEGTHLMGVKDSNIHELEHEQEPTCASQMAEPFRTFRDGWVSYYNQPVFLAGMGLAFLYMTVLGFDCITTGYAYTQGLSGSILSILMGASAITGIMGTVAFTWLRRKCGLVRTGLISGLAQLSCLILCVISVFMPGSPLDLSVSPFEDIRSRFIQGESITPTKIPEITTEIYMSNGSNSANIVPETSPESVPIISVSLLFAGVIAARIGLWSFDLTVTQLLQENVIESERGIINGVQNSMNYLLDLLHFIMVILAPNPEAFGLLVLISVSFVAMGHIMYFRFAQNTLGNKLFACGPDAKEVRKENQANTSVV
Experiment: In-vitro ferroportin internalization assay (luciferase reporter)
Format: cell-based
Conditions: average pEC50; stably-transfected CHO cell line expressing human ferroportin tagged to a luciferase reporter; 6 h incubation with test compounds
Method: The protocol for this assay is generally as described in WO2018/128828, incorporated herein by reference in its entirety. Functional internalization of ferroportin protein was measured using a stably-transfected CHO cell line expressing the human ferroportin tagged to a luciferase reporter. Cells were plated for 24 h in the presence of ferric ammonium citrate (FAC). Ferroportin protein expression was induced with doxycycline for 24 h. The next day, the compounds were added. Test compounds were dissolved in DMSO. Cells were incubated with the test compounds for 6 h, and subsequently luciferase activity was measured using the Nano-Glo Luciferase Assay System and Glomax (Promega, Madison, Wis.).
The average pEC50 was determined for the test compounds.

| pEC50 | SMILES |
| --- | --- |
| 6.3 | C[C@@H](Cc1nc2c(NCc3ncccc3F)ncnc2s1)NCCc1nc2ccccc2[nH]1 [Compound 28, 2-[(2S)-2-{[2-(1H-1,3-benzodiazol-2-yl)ethyl]amino}propyl]-N-[(3-fluoropyridin-2-yl)methyl]-[1,3]thiazolo[5,4-d]pyrimidin-7-amine] |
| 5.2 | CC(=O)NOc1nc(NCc2ncccc2F)c2nc(CCNCCc3nc4ccccc4[nH]3)sc2n1 [Compound 29, N-{[2-(2-{[2-(1H-1,3-benzodiazol-2-yl)ethyl]amino}ethyl)-7-{[(3-fluoropyridin-2-yl)methyl]amino}-[1,3]thiazolo[5,4-d]pyrimidin-5-yl]oxy}acetamide] |
| 7.3 | Fc1cccnc1CNc1ncnc2sc(C(F)CNCCc3nc4ccccc4[nH]3)nc12 (centres unmarked) [Compound 30, 2-(2-{[2-(1H-1,3-benzodiazol-2-yl)ethyl]amino}-1-fluoroethyl)-N-[(3-fluoropyridin-2-yl)methyl]-[1,3]thiazolo[5,4-d]pyrimidin-7-amine] |
| 5.6 | Cc1nc(NCc2ncccc2F)c2nc(CCNCCc3nc4ccccc4[nH]3)sc2n1 [Compound 31, 2-(2-{[2-(1H-1,3-benzodiazol-2-yl)ethyl]amino}ethyl)-N-[(3-fluoropyridin-2-yl)methyl]-5-methyl-[1,3]thiazolo[5,4-d]pyrimidin-7-amine] |
| 6.9 | [N-]=[N+]=Nc1cccnc1CNc1ncnc2sc(CCNCCc3nc4cc(I)ccc4[nH]3)nc12 [Compound 32, N-[(3-azidopyridin-2-yl)methyl]-2-(2-{[2-(5-iodo-1H-1,3-benzodiazol-2-yl)ethyl]amino}ethyl)-[1,3]thiazolo[5,4-d]pyrimidin-7-amine] |
| 6.2 | Fc1cccnc1CNc1ncnc2sc(CCNCCc3nc4ncccc4[nH]3)nc12 [Compound 33, N-[(3-fluoropyridin-2-yl)methyl]-2-{2-[(2-{1H-imidazo[4,5-b]pyridin-2-yl}ethyl)amino]ethyl}-[1,3]thiazolo[5,4-d]pyrimidin-7-amine] |
| 5.1 | O=c1c2ccccc2[nH]n1CCNCCc1nc2c(NCc3ncccc3F)ncnc2s1 [Compound 34, 2-(2-{[2-(7-{[(3-fluoropyridin-2-yl)methyl]amino}-[1,3]thiazolo[5,4-d]pyrimidin-2-yl)ethyl]amino}ethyl)-2,3-dihydro-1H-indazol-3-one] |
| 7.1 | Fc1cccnc1CNc1ncnc2sc(CCNCCc3ncc(-c4ccccc4)[nH]3)nc12 [Compound 35, N-[(3-fluoropyridin-2-yl)methyl]-2-(2-{[2-(5-phenyl-1H-imidazol-2-yl)ethyl]amino}ethyl)-[1,3]thiazolo[5,4-d]pyrimidin-7-amine] |
| 6.4 | Oc1nc(NCc2ncccc2F)c2nc(CCNCCc3nc4ccccc4[nH]3)oc2n1 [Compound 36, 2-(2-{[2-(1H-1,3-benzodiazol-2-yl)ethyl]amino}ethyl)-7-{[(3-fluoropyridin-2-yl)methyl]amino}-[1,3]oxazolo[5,4-d]pyrimidin-5-ol] |
| 5.6 | Fc1cccnc1CNc1ncnc2sc(CCNCCc3nc4cnccc4[nH]3)nc12 [Compound 37, N-[(3-fluoropyridin-2-yl)methyl]-2-{2-[(2-{1H-imidazo[4,5-c]pyridin-2-yl}ethyl)amino]ethyl}-[1,3]thiazolo[5,4-d]pyrimidin-7-amine] |
| 4.9 | CC(NCCc1nc2c(NCc3ncccc3F)ncnc2s1)c1ccccc1O (centres unmarked) [Compound 38, 2-(1-{[2-(7-{[(3-fluoropyridin-2-yl)methyl]amino}-[1,3]thiazolo[5,4-d]pyrimidin-2-yl)ethyl]amino}ethyl)phenol] |
| 6.9 | C#CCCC1(CCC(=O)NCc2ccc3[nH]c(CCNCCc4nc5c(NCc6ncccc6F)ncnc5s4)nc3c2)N=N1 [Compound 39, 3-[3-(but-3-yn-1-yl)-3H-diazirin-3-yl]-N-{[2-(2-{[2-(7-{[(3-fluoropyridin-2-yl)methyl]amino}-[1,3]thiazolo[5,4-d]pyrimidin-2-yl)ethyl]amino}ethyl)-1H-1,3-benzodiazol-5-yl]methyl}propanamide] |
| 6.2 | CC(Cc1nc2ccccc2[nH]1)NCCc1nc2c(NCc3ncccc3F)ncnc2s1 (centres unmarked) [Compound 40, 2-(2-{[1-(1H-1,3-benzodiazol-2-yl)propan-2-yl]amino}ethyl)-N-[(3-fluoropyridin-2-yl)methyl]-[1,3]thiazolo[5,4-d]pyrimidin-7-amine] |
| 7.2 | CC(CNCCc1nc2c(NCc3ncccc3F)ncnc2s1)c1nc2ccccc2[nH]1 (centres unmarked) [Compound 41, 2-(2-{[2-(1H-1,3-benzodiazol-2-yl)propyl]amino}ethyl)-N-[(3-fluoropyridin-2-yl)methyl]-[1,3]thiazolo[5,4-d]pyrimidin-7-amine] |
| 7.3 | Fc1cccnc1CNc1ncnc2sc(CCNCCc3ncc[nH]3)nc12 [Compound 42, N-[(3-fluoropyridin-2-yl)methyl]-2-(2-{[2-(1H-imidazol-2-yl)ethyl]amino}ethyl)-[1,3]thiazolo[5,4-d]pyrimidin-7-amine] |
| 8.4 | Fc1cccnc1CNc1ncnc2sc(CCNCCc3ncc(Cc4ccccc4)[nH]3)nc12 [Compound 43, 2-(2-{[2-(5-benzyl-1H-imidazol-2-yl)ethyl]amino}ethyl)-N-[(3-fluoropyridin-2-yl)methyl]-[1,3]thiazolo[5,4-d]pyrimidin-7-amine] |
| 4.9 | Oc1ccccc1CCNCCc1nc2c(NCc3ncccc3F)ncnc2s1 [Compound 44, 2-(2-{[2-(7-{[(3-fluoropyridin-2-yl)methyl]amino}-[1,3]thiazolo[5,4-d]pyrimidin-2-yl)ethyl]amino}ethyl)phenol] |
| 6.4 | Fc1cccnc1CNc1ncnc2sc(CCNCC(F)c3nc4ccccc4[nH]3)nc12 (centres unmarked) [Compound 45, 2-(2-{[2-(1H-1,3-benzodiazol-2-yl)-2-fluoroethyl]amino}ethyl)-N-[(3-fluoropyridin-2-yl)methyl]-[1,3]thiazolo[5,4-d]pyrimidin-7-amine] |
| 7.1 | Cc1cc2nc(CCNCCc3nc4c(NCc5ncccc5F)ncnc4s3)[nH]c2cc1C [Compound 46, 2-(2-{[2-(5,6-dimethyl-1H-1,3-benzodiazol-2-yl)ethyl]amino}ethyl)-N-[(3-fluoropyridin-2-yl)methyl]-[1,3]thiazolo[5,4-d]pyrimidin-7-amine] |
| 5.8 | O=C(CCC1(CCc2cn(CCCNC(=O)c3ccc4c(c3)C3(OC4=O)c4ccc(O)cc4Oc4cc(O)ccc43)nn2)N=N1)Nc1ccc2[nH]c(CCNCCc3nc4c(NCc5ncccc5F)ncnc4s3)nc2c1 [Compound 47, N-[3-(4-{2-[3-(2-{[2-(2-{[2-(7-{[(3-fluoropyridin-2-yl)methyl]amino}-[1,3]thiazolo[5,4-d]pyrimidin-2-yl)ethyl]amino}ethyl)-1H-1,3-benzodiazol-5-yl]carbamoyl}ethyl)-3H-diazirin-3-yl]ethyl}-1H-1,2,3-triazol-1-yl)propyl]-3′,6′-dihydroxy-3-oxo-3H-spiro[2-benzofuran-1,9′-xanthene]-6-carboxamide] |
| 7 | Fc1cccnc1CNc1nccc2oc(CCNCCc3ncc(-c4ccccc4)[nH]3)nc12 [Compound 48, N-[(3-fluoropyridin-2-yl)methyl]-2-(2-{[2-(5-phenyl-1H-imidazol-2-yl)ethyl]amino}ethyl)-[1,3]oxazolo[4,5-c]pyridin-4-amine] |
| 6.9 | Fc1cccnc1CNc1ncnc2sc(CCNCc3nc(-c4ccccc4)c[nH]3)nc12 [Compound 49, N-[(3-fluoropyridin-2-yl)methyl]-2-(2-{[(4-phenyl-1H-imidazol-2-yl)methyl]amino}ethyl)-[1,3]thiazolo[5,4-d]pyrimidin-7-amine] |
| 5.1 | OC(CNCCc1nc2c(NCc3ncccc3F)ncnc2s1)c1nc2ccccc2[nH]1 (centres unmarked) [Compound 50, 1-(1H-1,3-benzodiazol-2-yl)-2-{[2-(7-{[(3-fluoropyridin-2-yl)methyl]amino}-[1,3]thiazolo[5,4-d]pyrimidin-2-yl)ethyl]amino}ethan-1-ol] |
| 8.2 | Fc1cccnc1CNc1ncnc2sc(CCNCCc3ncc(C4CC4)[nH]3)nc12 [Compound 51, 2-(2-{[2-(5-cyclopropyl-1H-imidazol-2-yl)ethyl]amino}ethyl)-N-[(3-fluoropyridin-2-yl)methyl]-[1,3]thiazolo[5,4-d]pyrimidin-7-amine] |
| 6.6 | C[C@H](CNCCc1nc2c(NCc3ncccc3F)ncnc2s1)c1nc2ccccc2[nH]1 [Compound 52, 2-(2-{[(2R)-2-(1H-1,3-benzodiazol-2-yl)propyl]amino}ethyl)-N-[(3-fluoropyridin-2-yl)methyl]-[1,3]thiazolo[5,4-d]pyrimidin-7-amine] |
| 7.3 | C[C@@H](CNCCc1nc2c(NCc3ncccc3F)ncnc2s1)c1nc2ccccc2[nH]1 [Compound 53, 2-(2-{[(2S)-2-(1H-1,3-benzodiazol-2-yl)propyl]amino}ethyl)-N-[(3-fluoropyridin-2-yl)methyl]-[1,3]thiazolo[5,4-d]pyrimidin-7-amine] |
